The record followed here is patent US7145009B2, “Pirazino(aza)indole derivatives” (priority 1999, dated 2006).

In general, Ki refers to the equilibrium dissociation constant of an inhibitor or competing ligand from its target. For orientation: EC50 means the concentration that produces a half-maximal response.

Where a name gives a salt, the structure may show the parent alone.

Test [1] concerns the target T1, 5-HT2c receptors in a CHO cell line (Homo sapiens, UniProt P28335).
T1 construct: expressed in transfected cells; host or cells: CHO cell line
T1 sequence (P28335 33-458): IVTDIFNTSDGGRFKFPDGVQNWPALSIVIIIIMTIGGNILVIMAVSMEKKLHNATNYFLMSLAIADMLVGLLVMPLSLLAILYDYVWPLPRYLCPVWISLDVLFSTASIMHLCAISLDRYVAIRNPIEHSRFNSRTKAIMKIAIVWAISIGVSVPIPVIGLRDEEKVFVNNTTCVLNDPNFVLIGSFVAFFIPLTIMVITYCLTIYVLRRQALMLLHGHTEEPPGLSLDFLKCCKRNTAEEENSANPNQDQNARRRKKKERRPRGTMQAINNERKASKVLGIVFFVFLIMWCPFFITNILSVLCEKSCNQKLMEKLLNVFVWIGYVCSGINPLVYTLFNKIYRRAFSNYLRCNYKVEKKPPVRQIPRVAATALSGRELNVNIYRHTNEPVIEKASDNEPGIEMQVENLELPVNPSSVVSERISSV
Put plainly: Binding to 5-HT2c receptor, [3H]-5-HT, Method (a). The note with it: read-out: Ki (2C). As to the method: (§1) The binding of compounds of formula (I) to serotonin receptors was determined in vitro by standard methods. The preparations were investigated in accordance with the assays given hereinafter.
Method (a): For the binding to the 5-HT2c receptor the 5-HT2c receptors were radiolabelled with [^3H]-5-HT. The affinity of the compounds for 5-HT2c receptors in a CHO cell line was determined according to the procedure of D. Hoyer, G. Engel and H. O. Kalkman, European J. Pharmacol., 1985, 118, 13–23.

The target of test [2] is T2, human 5-HT2B receptors in a CHO cell line (Homo sapiens, UniProt P41595).
T2 construct: expressed in transfected cells; host or cells: CHO cell line
The test can be described thus: Binding to 5-HT2B receptor, [3H]-5-HT, Method (b). The note with it: read-out: Ki (2B). As to the method: as §1
Method (b): For the binding to the 5-HT2B receptor the 5-HT2B receptors were radiolabelled with [^3H]-5-HT. The affinity of the compounds for human 5-HT2B receptors in a CHO cell line was determined according to the procedure of K. Schmuck, C. Ullmer, P. Engels and H. Lubbett, FEBS Lett., 1994, 342, 85–90.

Test [3] concerns the target T3, 5-HT2A receptors in a CHO cell line (Homo sapiens, UniProt P28223).
T3 construct: expressed in transfected cells; host or cells: CHO cell line
The test can be described thus: Binding to 5-HT2A receptor, [125I]-DOI, Method (c). The note with it: read-out: Ki (2A). As to the method: as §1
Method (c): For the binding to the 5-HT2A receptor the 5-HT2A receptors were radiolabelled with […]. The affinity of the compounds for 5-HT2A receptors in a CHO cell line was determined according to the procedure of D. J. McKenna and S. J. Peroutka, J. Neurosci., 1989, 9/10, 3482–90.

The target in test [4] is T4, h5-HT2C receptor (CHO cells) (Homo sapiens, UniProt P28335).
T4 construct: expressed in transfected cells; host or cells: CHO cells
T4 sequence (P28335 33-458): T1 sequence (P28335 33-458)
Put plainly: Functional activity, FLIPR calcium assay, h5-HT2C. In kind it is cell-based. As to the method:
(§2) The functional activity of compounds of formula (I) was assayed using a Fluorimetric Imaging Plate reader (FLIPR):
(§3) CHO cells expressing either the h5-HT2C or h5-HT2A receptors were counted and plated into standard 96 well microtitre plates before the day of testing to give a confluent monolayer. The following day the cells were dye loaded with the calcium sensitive dye Fluo 3-AM by incubation with serum free culture maintenance media containing pluronic acid and Fluo 3-AM dissolved in DMSO at 37° C. in a CO2 incubator at 95% humidity for approximately 90 minutes. Unincorporated dye was removed by washing with Hanks balanced salt solution containing 20 mM HEPES and 2.5 mM probenecid (the assay buffer) using an automated cell washer to leave a total volume of 100 μl/well.
(§4) The drug (dissolved in 50 μl of assay buffer) was added at a rate of 70 μl/sec to each well of the FLIPR 96 well plate during fluorescence measurements. The measurements are taken at 1 sec intervals and the maximum fluorescent signal was measured (approx 10–15 secs after drug addition) and compared with the response produced by 10 μM 5-HT (defined as 100%) to which it is expressed as a percentage response (relative efficacy). Dose response curves were constructed using Graphpad Prism (Graph Software Inc.).

The target in test [5] is T5, h5-HT2A receptor (CHO cells) (Homo sapiens, UniProt P28223).
T5 construct: expressed in transfected cells; host or cells: CHO cells
Put plainly: Functional activity, FLIPR calcium assay, h5-HT2A. It counts as cell-based. As for the experimental part: as §2, §3, §4

Test [6] deals with 5-HT2c syndrome (splayed limbs, hunched posture, retro-pulsion). The test can be described thus: 5-HT2c syndrome, in vivo efficacy of 5-HT2C agonists. The note with it: rats, 1 mg/kg s.c. As for the experimental part: The efficacy of 5-HT2C agonists was assessed for ability to induce a specific syndrome.
The 5-HT2c syndrome is a rapid screening method to assess the in vivo efficacy of 5-HT2c agonists through their ability to induce three specific behaviours in rats. The animals are dosed with either a positive control (mCPP), test compound or vehicle, either s.c. or p.o. The animals are observed on an open bench, typically 30, 60 and 180 minutes and the degree of syndrome is assessed over a two minute period on a scale of 0–3 depending on the presence and severity of splayed limbs, hunched posture and retro-pulsion, the three specific behaviours which constitute the syndrome. Data is analysed using Kruskal-Wallis Analysis of Variance followed with appropriate post-hoc tests. All statistical analysis are conducted using Excel version 7.0 (Microsoft Corp.) and Statistica version 5.0 (Stasoft, Inc.).

T5 sequence (P28223 whole entry): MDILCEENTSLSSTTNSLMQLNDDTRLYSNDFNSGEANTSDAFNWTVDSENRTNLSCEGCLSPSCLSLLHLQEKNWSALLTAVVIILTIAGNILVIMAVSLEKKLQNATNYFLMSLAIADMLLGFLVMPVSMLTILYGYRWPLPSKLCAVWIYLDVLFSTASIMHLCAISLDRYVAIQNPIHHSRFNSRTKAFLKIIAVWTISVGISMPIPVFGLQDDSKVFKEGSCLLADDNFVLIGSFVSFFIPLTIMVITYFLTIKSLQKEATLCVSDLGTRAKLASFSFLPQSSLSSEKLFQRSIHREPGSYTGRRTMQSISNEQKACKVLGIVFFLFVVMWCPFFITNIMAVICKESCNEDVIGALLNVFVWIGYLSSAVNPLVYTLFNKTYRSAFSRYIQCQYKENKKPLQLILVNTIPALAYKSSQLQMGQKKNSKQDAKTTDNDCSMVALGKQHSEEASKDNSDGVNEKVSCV
T3 sequence (P28223 whole entry): as above
T2 sequence (P41595 whole entry): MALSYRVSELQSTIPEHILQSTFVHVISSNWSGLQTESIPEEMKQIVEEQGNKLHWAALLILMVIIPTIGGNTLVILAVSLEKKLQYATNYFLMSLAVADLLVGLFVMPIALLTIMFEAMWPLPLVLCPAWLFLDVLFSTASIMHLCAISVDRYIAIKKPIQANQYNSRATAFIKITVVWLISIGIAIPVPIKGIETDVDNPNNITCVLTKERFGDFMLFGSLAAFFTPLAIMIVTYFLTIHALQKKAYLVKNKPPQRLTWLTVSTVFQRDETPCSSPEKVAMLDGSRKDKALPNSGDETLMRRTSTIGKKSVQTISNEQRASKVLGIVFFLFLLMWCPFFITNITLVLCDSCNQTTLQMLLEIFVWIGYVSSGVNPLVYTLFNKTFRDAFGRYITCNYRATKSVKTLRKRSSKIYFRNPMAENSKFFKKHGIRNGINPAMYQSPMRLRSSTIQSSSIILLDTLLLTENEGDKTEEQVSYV

With `Clc1ccc2c(c1)N1CCNCC1C2` (racemic) [Example 1, (RS) 7-Chloro-1,2,3,4,10,10a-hexahydropyrazino[1,2-a]indole hydrochloride], the Ki in test [1] came out at 31 nM; in test [2], 32 nM; in test [3] it was 53 nM. In addition, the values for the concentration for a half-maximal effect (EC50) in test [4] and in test [5] were 18 nM and 513 nM, respectively. Further, the Emax came to 91% in test [4] (CHO, read-out: h5-HT2C Relative Efficacy) and 53% in test [5] (CHO, read-out: h5-HT2A Relative Efficacy). Also, in test [6], the “time for which significant pharmacological efficacy is maintained (5-HT2c syndrome)” value is recorded as “at least 180 minutes”.
